# US12268665B2, “Combination of immunotherapies with MDM2 inhibitors” (ASCENTAGE PHARMA (SUZHOU) CO., LTD., priority 2018, dated 2025)
# Where two headings read alike, the source gives them in different places.
# Columns and labels:
# [1] = test system: CD4+ T cells isolated from mouse spleens; assay: Activation of CD4+ T cells by APG-115 (flow cytometry); type: cell-based
# Description: Effector T cells play a critical role in antitumor immunity. To investigate whether APG-115 influenced T cell function, CD4^+ T cells isolated from mouse spleens were exposed to APG-115 or solvent control DMSO.
# Specifically, CD4^+ T cells were positively selected from mouse spleens using magnetic beads and stimulated with 5 μg/ml plate-bound anti-CD3 and 2 μg/ml anti-CD28 in the presence of APG-115 (250 nM) or DMSO for 24 h (Day 1) or 48 h (Day 2). The percentages of CD25-expressing and CD62L-expressing populations (top panel), and FSC (lower panel) were determined by flow cytometry.
# [2] = Pharmacokinetic (PK) analysis in MH-22A tumor-bearing mice (LC/MS/MS); type: in vivo, mouse; details: for concentration at 4 h: oral
# Description: The quantitative LC/MS/MS analysis was conducted using an Exion HPLC system (AB Sciex, Ontario, Canada) coupled to an API 5500 mass spectrometer (AB Sciex, Ontario, Canada) equipped with an API electrospray ionization (ESI) source. The Phenomenex Titank phenyl-Hexyl column (50 mm×2.1 mm, 5 μm particle size) was used to achieved HPLC separation. The injection volume was 2 μl and the flow rate was kept constantly at 0.5 ml/min. Chromatography was performed with mobile phase A, acetonitrile:water:formic (5:95:0.1, by volume) and B, acetonitrile:water:formic (95:5:0.1, by volume). The mass spectrometer was operated at ESI positive ion mode for APG-115 while ESI negative mode for epacadostat. The detection of the ions was performed in the multiple reaction monitoring (MRM) mode, monitoring the transition of m/z 642.0→246.1 and 271.1→172.0 for APG-115 and IS (tolbutamide) in positive mode, 435.9→338.8 and 269.2→169.2 for epacadostat and IS (tolbutamide) in negative mode, respectively. Compounds parameters, declustering potential (DP), collision energy (CE) were 51, 61 V, 80, 18 V for APG-115 and IS in positive mode, −61, −15 V and −90, −23.5 V for epacadostat and IS in negative mode, respectively.
# Blood and tumor samples were collected from 5 mice/group in group-1, group-2, group-3 and group-5 4 hrs after the final dose on […]. Blood samples were collected from 5 mice/group in group-4, group-6, group-7 and group-8 4 hrs after the final dose on d29. Approximately 100 μl blood were collected in EDTA-2K tube and 50 μl plasma were collected for PK analysis. All samples were stored at −80° C. until analysis.
# In efficacy study of Example 2.1, mice in vehicle, APG-115 10 mg/kg and 50 mg/kg, and epacadostat single-agent groups were euthanized on d15 as described above. To assess PK characteristics of APG-115 and epacadostat in this study, plasma and tissue samples were collected 4 h after the last dosing on d15.
# [3] = Phase I study CTR20170975 in Chinese patients: safety; type: in vivo, human
# Description: (§1) Patients with advanced soft tissue sarcoma (STS), adenoid cystic carcinoma (ACC) or other solid tumors in China (CTR20170975) were treated with APG-115. In dose escalation, patients received APG-115 (100-200 mg) orally QOD for first 21 days of a 28-day cycle, until disease progression. Study objectives include safety (primary endpoint), pharmacokinetics (PK), pharmacodynamics (PD), and antitumor activity assessed every 8 weeks.
# (§2) This is a Phase I study (CTR20170975) is designed to assess the safety, dose-limiting toxicities (DLT), the maximum tolerated dose (MTD)/recommended phase 2 dose (RP2D), pharmacokinetics (PK), pharmacodynamics (PD) profile and anti-tumor activity of orally administered APG-115 in Chinese patients with advanced soft tissue sarcoma and other solid tumors.
# Single dose escalation study was conducted. A standard “3+3” design was employed to determine the maximum tolerated dose (MTD) of APG-115 by assessing the dose limiting toxicity (DLT) of APG-115. Three dose levels of APG-115 was tested: 100, 150, 200 mg. APG-115 was administrated orally every other day (QOD) for a consecutive 3 weeks (i.e. dosed at Day 1, 3, 5, 7, 9, 11, 13, 15, 17, 19, and 21), with one week dosing off as 4-weeks a cycle. […] The scheme of the trial design is provided below.
# This study was conducted with an initial dosage of […], according to the preliminary safety results in phase I study of APG-115 in the US.
# [4] = test system: serum MIC-1 (PD marker of TP53 activation); assay: Phase I study CTR20170975: pharmacodynamics; type: in vivo, human
# Description: as §1, §2
# [5] = 250 nM, anti-CD3/anti-CD28 stimulated, 24 h or 48 h
smiles,measurement,setting,value
CCN1[C@@H](C(=O)NC23CCC(C(=O)O)(CC2)CC3)[C@H](c2cccc(Cl)c2F)[C@]2(C(=O)Nc3cc(Cl)ccc32)C12CCCCC2 [APG-115],caspase 3 cleavage in T cells,[1]; 250 nM of APG-115,not detected
same,CD25^highCD62L^low cell populations,[1]; [5],rapid increase
same,cell size of stimulated CD4+ T cells (FSC),[1]; [5],increase in cell size
same,increases in systemic exposure and tissue distribution with dose,[2]; 10 vs 50 mg/kg,approximately dose proportional
same,pharmacokinetic interaction with anti-PD-1 antibody,"[2]; mouse, in vivo",no apparent pharmacokinetic interaction
same,concentration at 4 h,"[2]; mouse, plasma, 10 mg/kg, 10 mg/kg daily oral for 15 days, single agent, 4 h after last dosing, read-out: plasma concentration of APG-115",157 ng/mL
same,concentration at 4 h,"[2]; mouse, plasma, 10 mg/kg, 10 mg/kg in combination with anti-PD-1, read-out: plasma concentration of APG-115",120 ng/mL
same,concentration at 4 h,"[2]; mouse, plasma, 50 mg/kg, 50 mg/kg daily oral for 15 days, single agent, 4 h after last dosing, read-out: plasma concentration of APG-115",1230 ng/mL
same,concentration at 4 h,"[2]; mouse, plasma, 50 mg/kg, 50 mg/kg in combination with anti-PD-1, read-out: plasma concentration of APG-115",2150 ng/mL
same,concentration at 4 h,"[2]; mouse, tumor, 10 mg/kg, 10 mg/kg as single agent, read-out: APG-115 concentration in tumor tissues",152 ng/g
same,concentration at 4 h,"[2]; mouse, tumor, 50 mg/kg, 50 mg/kg as single agent, read-out: APG-115 concentration in tumor tissues",1470 ng/g
same,MTD,"[3]; QOD, 21 days on 7 days off",150 mg
same,Adverse Event: Abdominal distension,"[3]; human, in vivo",2 (14.3%)
same,Adverse Event: Abdominal pain,"[3]; human, in vivo",2 (14.3%)
same,Adverse Event: Anaemia,"[3]; human, in vivo",11 (78.6%)
same,Adverse Event: Any AE,"[3]; human, in vivo",14 (100.0%)
same,Adverse Event: Asthenia,"[3]; human, in vivo",2 (14.3%)
same,Adverse Event: Blood alkaline phosphatase increased,"[3]; human, in vivo",2 (14.3%)
same,Adverse Event: Blood creatinine increased,"[3]; human, in vivo",2 (14.3%)
same,Adverse Event: Cancer pain,"[3]; human, in vivo",2 (14.3%)
same,Adverse Event: Decreased appetite,"[3]; human, in vivo",2 (14.3%)
same,Adverse Event: Febrile neutropenia,"[3]; human, in vivo",2 (14.3%)
same,Adverse Event: Gamma-glutamyltransferase increased,"[3]; human, in vivo",4 (28.6%)
same,Adverse Event: Headache,"[3]; human, in vivo",2 (14.3%)
same,Adverse Event: Hypercholesterolaemia,"[3]; human, in vivo",8 (57.1%)
same,Adverse Event: Hypertriglyceridaemia,"[3]; human, in vivo",5 (35.7%)
same,Adverse Event: Hyperuricaemia,"[3]; human, in vivo",3 (21.4%)
same,Adverse Event: Hypoalbuminaemia,"[3]; human, in vivo",7 (50.0%)
same,Adverse Event: Hypokalaemia,"[3]; human, in vivo",3 (21.4%)
same,Adverse Event: Insomnia,"[3]; human, in vivo",2 (14.3%)
same,Adverse Event: Low density lipoprotein increased,"[3]; human, in vivo",2 (14.3%)
same,Adverse Event: Nausea,"[3]; human, in vivo",5 (35.7%)
same,Adverse Event: Neutrophil count decreased,"[3]; human, in vivo",5 (35.7%)
same,Adverse Event: Oedemaperipheral,"[3]; human, in vivo",3 (21.4%)
same,Adverse Event: Platelet count decreased,"[3]; human, in vivo",9 (64.3%)
same,Adverse Event: Vomiting,"[3]; human, in vivo",8 (57.1%)
same,Adverse Event: White blood cell count decreased,"[3]; human, in vivo",7 (50.0%)
same,Grade 3 Adverse Event: Anaemia,"[3]; human, in vivo",5 (35.7%)
same,Grade 3 Adverse Event: Any AE,"[3]; human, in vivo",10 (71.4%)
same,Grade 3 Adverse Event: Blood creatinine increased,"[3]; human, in vivo",1 (7.1%)
same,Grade 3 Adverse Event: Dyspnoea,"[3]; human, in vivo",1 (7.1%)
same,Grade 3 Adverse Event: Febrile neutropenia,"[3]; human, in vivo",2 (14.3%)
same,Grade 3 Adverse Event: Lipase increased,"[3]; human, in vivo",1 (7.1%)
same,Grade 3 Adverse Event: Neutrophil count decreased,"[3]; human, in vivo",4 (28.6%)
same,Grade 3 Adverse Event: Platelet count decreased,"[3]; human, in vivo",6 (42.9%)
same,Grade 3 Adverse Event: Pulmonary embolism,"[3]; human, in vivo",1 (7.1%)
same,Grade 3 Adverse Event: Ureteric obstruction,"[3]; human, in vivo",1 (7.1%)
same,Grade 3 Adverse Event: Vomiting,"[3]; human, in vivo",2 (14.3%)
same,Grade 3 Adverse Event: White blood cell count decreased,"[3]; human, in vivo",4 (28.6%)
same,Grade 3 or 4 TRAE: anaemia,"[3]; human, in vivo",38.5%
same,Grade 3 or 4 TRAE: leukopenia,"[3]; human, in vivo",30.8%
same,Grade 3 or 4 TRAE: neutropenia,"[3]; human, in vivo",23.1%
same,Grade 3 or 4 TRAE: thrombocytopenia,"[3]; human, in vivo",38.5%
same,RP2D,"[3]; human, in vivo",100 mg
same,"SAE, % of pts","[3]; human, in vivo",54%
same,"SAE, pts","[3]; human, in vivo",7 pts
same,most common Grade 3 or 4 AEs,"[3]; human, in vivo","hematologic toxicities, particularly thrombocytopenia"
same,serum MIC-1 levels,"[4]; APG-115 doses ≥100 mg, preliminary",elevated from individual baseline
same,MIC-1 increase,[4]; within the dose range tested (Example 5),exposure dependent
same,Serum MIC-1 increase,[4]; within the dose range tested (Example 8),exposure dependent
